Laboratory results as given in ChEMBL document CHEMBL1201862, “PubChem BioAssay data set” (2004).
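Step 1: Grow cells in 96-well plates. Step 2: Expose to compound for 48 hours at 5 concentrations. Step 3: Interpolate endpoints linearly; if unreached, use highest concentration. GI50 is the concentration that inhibits growth by half.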 Activity calls are given as the source filed them. Rule as the data show it: active = GI50 up to about 1.1 µM and inactive = higher.

Columns and labels:
Assay in all cases: NCI-60 cell line screen, 48 h
NCI-H23 = system: NCI-H23
M14 = system: M14
HCT-116 = system: HCT-116
OVCAR-3 = system: OVCAR-3
UO-31 = system: UO-31
A549 = system: A549
HL-60 = system: HL-60
IGROV-1 = system: IGROV-1
SK-OV-3 = system: SK-OV-3
RXF 393 = system: RXF 393
NCI-H460 = system: NCI-H460
SNB-19 = system: SNB-19
KM-20L2 = system: KM-20L2
SK-MEL-5 = system: SK-MEL-5
K562 = system: K562
CCRF-CEM = system: CCRF-CEM
KM12 = system: KM12
SW-620 = system: SW-620
DU-145 = system: DU-145
MDA-MB-231 = system: MDA-MB-231

Measured: GI50

CN(C)NC(=O)/C(=C/c1ccc(Cl)cc1)NC(=O)c1ccccc1
inactive: NCI-H23 > 100 µM | M14 > 100 µM | HCT-116 > 100 µM | OVCAR-3 > 100 µM | UO-31 57.1 µM | A549 > 100 µM | HL-60 34.4 µM | IGROV-1 > 100 µM | SK-OV-3 > 100 µM | RXF 393 > 100 µM | NCI-H460 69.3 µM | SNB-19 > 100 µM | KM-20L2 > 100 µM | SK-MEL-5 > 100 µM | K562 85.3 µM | CCRF-CEM > 100 µM | KM12 > 100 µM

c1ccc2c(c1)nnn2CNc1ccc(N2CCCCC2)cc1
inactive: NCI-H23 > 100 µM | M14 > 100 µM | HCT-116 > 100 µM | OVCAR-3 > 100 µM | UO-31 > 100 µM | SW-620 > 100 µM | A549 > 100 µM | HL-60 45.3 µM | IGROV-1 > 100 µM | SK-OV-3 > 100 µM | RXF 393 > 100 µM | NCI-H460 > 100 µM | SNB-19 > 100 µM | KM-20L2 > 100 µM | K562 > 100 µM | CCRF-CEM 77.1 µM | KM12 > 100 µM

O=C(/C=C/c1ccc(OCCSCCCCCCCCCCSCCOc2ccc(/C=C/C(=O)c3ccc(Cl)cc3)cc2)cc1)c1ccc(Cl)cc1
inactive: NCI-H23 > 94.6 µM | M14 > 100 µM | HCT-116 > 100 µM | OVCAR-3 > 100 µM | UO-31 > 100 µM | SW-620 > 100 µM | DU-145 > 100 µM | A549 > 100 µM | HL-60 > 100 µM | IGROV-1 > 100 µM | SK-OV-3 65.5 µM | MDA-MB-231 > 100 µM | RXF 393 43.6 µM | NCI-H460 > 100 µM | SNB-19 > 74.3 µM | KM-20L2 > 100 µM | SK-MEL-5 > 100 µM | K562 > 100 µM | CCRF-CEM > 100 µM | KM12 > 100 µM

CN1CC[C@]2(C)c3cc(O)ccc3CC3CCCC1C32C (some centres not stated)
inactive: NCI-H23 > 100 µM | M14 > 100 µM | HCT-116 > 100 µM | OVCAR-3 > 100 µM | UO-31 89.7 µM | SW-620 > 100 µM | A549 > 100 µM | HL-60 > 100 µM | IGROV-1 > 100 µM | SK-OV-3 > 100 µM | RXF 393 > 100 µM | NCI-H460 > 100 µM | SNB-19 > 100 µM | KM-20L2 > 100 µM | SK-MEL-5 > 100 µM | K562 > 100 µM | CCRF-CEM > 100 µM | KM12 > 100 µM

COC(=O)c1cc2c3c(ccc2[nH]1)N(C(=O)c1cc2c4c(ccc2[nH]1)N(C(=O)c1cc2c5c(ccc2[nH]1)N(C(N)=O)CC5)CC4)CC3
inactive: NCI-H23 2.94 µM | M14 1.87 µM | HCT-116 2.24 µM | OVCAR-3 3.9 µM | UO-31 3.94 µM | SW-620 7.85 µM | A549 3 µM | HL-60 6.62 µM | IGROV-1 3.37 µM | SK-OV-3 2.1 µM | RXF 393 2.17 µM | NCI-H460 3.24 µM | SNB-19 2.61 µM | KM-20L2 > 63.8 µM | SK-MEL-5 2.07 µM | K562 2.44 µM | CCRF-CEM 4.58 µM | KM12 6.82 µM

COC(=O)C1=Cc2cc(OC)c(OC)cc2[C@H](c2ccc(OC)c(OC)c2)C1C(=O)OC (some centres not stated)
inactive: NCI-H23 > 100 µM | M14 > 100 µM | HCT-116 > 100 µM | OVCAR-3 > 100 µM | UO-31 > 100 µM | SW-620 > 100 µM | A549 > 100 µM | HL-60 > 100 µM | IGROV-1 > 100 µM | SK-OV-3 > 100 µM | RXF 393 > 100 µM | NCI-H460 > 100 µM | SNB-19 > 100 µM | KM-20L2 > 100 µM | SK-MEL-5 > 100 µM | K562 > 100 µM | CCRF-CEM > 100 µM | KM12 > 100 µM

O=C(c1ccco1)N(C(=S)N1CCN(c2ccccc2)CC1)c1ccccc1
inactive: NCI-H23 > 100 µM | M14 > 100 µM | HCT-116 > 100 µM | OVCAR-3 > 100 µM | UO-31 66.8 µM | SW-620 > 100 µM | A549 > 100 µM | HL-60 > 100 µM | IGROV-1 > 100 µM | SK-OV-3 > 100 µM | RXF 393 > 100 µM | NCI-H460 > 100 µM | SNB-19 > 100 µM | KM-20L2 > 100 µM | SK-MEL-5 > 100 µM | K562 > 100 µM | CCRF-CEM > 100 µM | KM12 > 100 µM

COc1cc2c(cc1OC)C(=O)N1CCCC1C(=O)S2 (configuration not stated)
inactive: NCI-H23 > 100 µM | M14 > 100 µM | HCT-116 > 100 µM | OVCAR-3 > 100 µM | UO-31 > 100 µM | SW-620 > 100 µM | A549 > 100 µM | HL-60 > 100 µM | IGROV-1 19.9 µM | SK-OV-3 > 100 µM | RXF 393 > 100 µM | NCI-H460 > 100 µM | SNB-19 > 100 µM | KM-20L2 > 100 µM | SK-MEL-5 > 100 µM | K562 > 100 µM | CCRF-CEM > 100 µM | KM12 > 100 µM

Cc1ccc(C(=O)C(C)N)cc1 (configuration not stated)
inactive: NCI-H23 > 100 µM | M14 > 100 µM | HCT-116 > 100 µM | OVCAR-3 > 100 µM | UO-31 > 100 µM | SW-620 > 100 µM | A549 > 100 µM | HL-60 > 100 µM | IGROV-1 > 100 µM | SK-OV-3 > 100 µM | RXF 393 > 100 µM | NCI-H460 > 100 µM | SNB-19 > 100 µM | KM-20L2 > 100 µM | SK-MEL-5 > 100 µM | K562 > 100 µM | CCRF-CEM > 100 µM | KM12 > 100 µM

O=C(O)C12C3CCC(C3)C1(C(=O)O)C1CCC2C1 (configuration not stated)
inactive: NCI-H23 > 100 µM | M14 > 100 µM | HCT-116 45.3 µM | OVCAR-3 > 100 µM | UO-31 > 100 µM | SW-620 18.4 µM | A549 > 100 µM | HL-60 39.6 µM | IGROV-1 > 100 µM | SK-OV-3 > 100 µM | RXF 393 34.4 µM | NCI-H460 81.3 µM | SNB-19 > 100 µM | KM-20L2 > 100 µM | SK-MEL-5 > 100 µM | K562 89.7 µM | CCRF-CEM 32.8 µM | KM12 > 100 µM

NCCCC(N/C=C1/N=C(c2ccccc2)OC1=O)C(=O)O (configuration not stated)
inactive: NCI-H23 > 100 µM | M14 > 100 µM | HCT-116 40.3 µM | OVCAR-3 > 100 µM | UO-31 > 100 µM | SW-620 > 100 µM | A549 > 100 µM | HL-60 63.4 µM | IGROV-1 > 100 µM | SK-OV-3 > 100 µM | RXF 393 > 100 µM | NCI-H460 > 100 µM | SNB-19 > 100 µM | KM-20L2 > 100 µM | SK-MEL-5 > 100 µM | K562 34.4 µM | CCRF-CEM 37.8 µM
